These are literature values, as cited in patent publication US20240228966A1, “UROLITHIN FOR INCREASING STEM CELL FUNCTION” (SOCIETE DES PRODUITS NESTLE S.A., priority 2021, published 2024).

SMILES strings stand for the structures.

This series concerns human HSCs. Particulars: culture media supplemented with nicotinamide riboside; cited from earlier work.

As to `NC(=O)c1ccc[n+]([C@@H]2O[C@H](CO)[C@@H](O)[C@H]2O)c1` [nicotinamide riboside], the “levels of engraftment in recipient humanised mice” value is given as “significantly higher levels of engraftment”.
